Tested on: Dogs
Test: Effect on dog intraocular pressure, applanation pneumatonometry
Assay type: in vivo
Conditions: for time (Hr) of IOP max % decrease / time (Hr) of IOP max mmHg / IOP max mmHg / IOP max % decrease: 25 μl to the ocular surface, concentration 0.03%; for IOP max mmHg / IOP max % decrease: at the time of maximum given in the cell; for IOP max % decrease: vehicle 0.1% polysorbate 80 and 10 mM TRIS base; for ocular hypotensive effect in dogs: topical ocular administration, result in words
Protocol: The compounds were prepared at the said concentrations in a vehicle comprising 0.1% polysorbate 80 and 10 mM TRIS base. Dogs were treated by administering 25 μl to the ocular surface, the contralateral eye received vehicle as a control. Intraocular pressure was measured by applanation pneumatonometry. […]

`Cc1cc(CC[C@H](O)/C=C/[C@@H]2[C@@H](C/C=C\CCCC(=O)NS(C)(=O)=O)[C@@H](O)C[C@H]2O)sc1Br` [Compound 9a, N-((Z)-7-{(1R,2R,3R,5S)-2-[(S)-(E)-5-(5-Bromo-4-methylthiophen-2-yl)-3-hydroxypent-1-enyl]-3,5-dihydroxycyclopentyl}hept-5-enoyl)methanesulfonamide] was tested, and the “time (Hr) of IOP max % decrease” value was 72 h, the “time (Hr) of IOP max mmHg” value was 72 h and the “IOP max mmHg” value was −2.8 mmHg. The “IOP max % decrease” value was −13.6% and the “ocular hypotensive effect in dogs” value was “pronounced ocular hypotensive effect”.
`Cc1sc(CC[C@H](O)/C=C/[C@@H]2[C@@H](C/C=C\CCCC(=O)NS(C)(=O)=O)[C@@H](O)C[C@H]2O)cc1Cl` [Compound 9b, N-((Z)-7-{(1R,2R,3R,5S)-2-[(S)-(E)-5-(4-Chloro-5-methylthiophen-2-yl)-3-hydroxypent-1-enyl]-3,5-dihydroxycyclopentyl}hept-5-enoyl)methanesulfonamide] was tested, and the “time (Hr) of IOP max % decrease” value was 96 h, the “time (Hr) of IOP max mmHg” value was 96 h and the “IOP max mmHg” value was −4.9 mmHg. For the same compound, the “IOP max % decrease” value was −26.5% and the “ocular hypotensive effect in dogs” value was “pronounced ocular hypotensive effect”.
With `CS(=O)(=O)NC(=O)CCC/C=C\C[C@@H]1[C@@H](/C=C/[C@@H](O)CCc2ccc(Cl)s2)[C@H](O)C[C@@H]1O` [Compound 9c] the “time (Hr) of IOP max % decrease” value was 102 h, the “time (Hr) of IOP max mmHg” value was 102 h and the “IOP max mmHg” value was −4.2 mmHg. For the same compound, the “IOP max % decrease” value was −23.8% and the “ocular hypotensive effect in dogs” value was “pronounced ocular hypotensive effect”.
With `CS(=O)(=O)NC(=O)CCC/C=C\C[C@@H]1[C@@H](/C=C/[C@@H](O)CCc2ccc(Br)s2)[C@H](O)C[C@@H]1O` [Compound 9e] the “time (Hr) of IOP max % decrease” value was 100 h, the “time (Hr) of IOP max mmHg” value was 100 h and the “IOP max mmHg” value was −2.0 mmHg. For the same compound, the “IOP max % decrease” value was −11.7% and the “ocular hypotensive effect in dogs” value was “pronounced ocular hypotensive effect”.
For `CCS(=O)(=O)NC(=O)CCC/C=C\C[C@@H]1[C@@H](/C=C/[C@@H](O)CCc2cc(C)c(Br)s2)[C@H](O)C[C@@H]1O` [Compound 10a, Ethanesulfonic acid ((Z)-7-{(1R,2R,3R,5S)-2-[(S)-(E)-5-(5-bromo-4-methylthiophen-2-yl)-3-hydroxypent-1-enyl]-3,5-dihydroxycyclopentyl}hept-5-enoyl)amide], the “time (Hr) of IOP max % decrease” value was 4 h, the “time (Hr) of IOP max mmHg” value was 4 h and the “IOP max mmHg” value was −5.1 mmHg. The “IOP max % decrease” value was −24.9% and the “ocular hypotensive effect in dogs” value was “pronounced ocular hypotensive effect”.
With `Cc1cc(CC[C@H](O)/C=C/[C@@H]2[C@@H](C/C=C\CCCC(=O)N(COC(=O)C(C)(C)C)S(C)(=O)=O)[C@@H](O)C[C@H]2O)sc1Br` [Compound 18a] the “time (Hr) of IOP max % decrease” value was 24 h, the “time (Hr) of IOP max mmHg” value was 24 h and the “IOP max mmHg” value was −3.9 mmHg. The “IOP max % decrease” value was −22.0% and the “ocular hypotensive effect in dogs” value was “pronounced ocular hypotensive effect”.
For `Cc1sc(CC[C@H](O)/C=C/[C@@H]2[C@@H](C/C=C\CCCC(=O)NS(=O)(=O)c3ccccc3)[C@@H](O)C[C@H]2O)cc1Cl` [Compound 19b], the “time (Hr) of IOP max % decrease” value was 74 h, the “time (Hr) of IOP max mmHg” value was 74 h and the “IOP max mmHg” value was −2.6 mmHg. The “IOP max % decrease” value was −13.0% and the “ocular hypotensive effect in dogs” value was “pronounced ocular hypotensive effect”.

Reference: patent US6706755B2, “Cyclopentane heptan(ene) acyl sulfonamide, 2-alkyl or 2-arylalkyl, or 2-heteroarylalkenyl derivatives as therapeutic agents” (Allergan, Inc., priority 2001, dated 2004)
